Laboratory results from PMC9331716, “Nucleoside Transport and Nucleobase Uptake Null Mutants in Leishmania mexicana for the Routine Expression and Characterization of Purine and Pyrimidine Transporters” (International Journal of Molecular Sciences, 2022).
Values joined by “and” are separate entries in the source; they are usually repeats but may differ in a detail not shown here. Identical values can stand only once. Like-named read-outs stand apart in the source and are kept apart here.

Key:
FurD = target: FurD; parameters: method as in PMID 17520477; conditions: FurD in A. nidulans, cited from earlier work
[1] = target: Aspergillus nidulans uracil transporter FurD (Aspergillus nidulans, UniProt A6N844); assay: Transport assay, FurD expressed in Lmex5FURes; format: cell-based
Method: (§1) Transport assays were performed exactly as described previously. Briefly, 10^7 cells in 100 μL of assay buffer (AB) were mixed with an equal volume of radiolabel at 2× concentration for a preset time. The incubation was terminated by the addition of 700 μL of “Stop solution”, being ice-cold 1 mM solution of unlabelled permeant, followed by immediate centrifugation through an oil layer in a microfuge at 13,000 rpm. This causes the cell pellet to reside under the oil layer and isolated from residual radiolabel in the assay buffer. The tubes were flash-frozen in liquid nitrogen and the bottom tip, containing the cell pellet, cut off and collected in a scintillation tube. Cells were solubilized by gentle shaking after addition of a 2% SDS solution, before the addition of scintillation fluid (Scintilogic U, Lablogic, Sheffield, UK); the tubes were left to stand in the dark overnight before counting in a 300SL Hidex Scintillation Counter (Lablogic). Linear and nonlinear regression analyses were carried out using GraphPad Prism versions 8.0 and higher. […] However, all parameters, including Km, Vmax, Ki, given are the average of at least three separate, independent determinations; errors given are standard errors, unless otherwise specified.

Lmex5FURes cells = assay: Radiolabel transport assay in Lmex5FURes cells; format: cell-based, Leishmania mexicana
Method: as §1

[2] = test system: L. mexicana SUPKO (ΔNT1.1/1.2/2) cells; assay: Radiolabel transport assay in SUPKO cells; format: cell-based, Leishmania mexicana; conditions: for rate of uptake: SUPKO cells
Method: as §1

[3] = test system: L. mexicana NT3-KO promastigotes; assay: Radiolabel transport assay in NT3-KO cells; format: cell-based, Leishmania mexicana; conditions: for rate of uptake: NT3-KO cells, 100 nM radiolabel; for upregulation of uptake rate in NT3-KO relative to cas9: adenosine and inosine at 100 nM, separate experiments listed singly
Method: as §1

LmexNT1.2 = assay: Transport assay, LmexNT1.2 expressed in SUPKO; format: cell-based, Leishmania mexicana; conditions: for rate of uptake: SUPKO expressing LmexNT1.2, 50 nM radiolabel
Method: as §1

TvagENT3 [4] = target: T1, TvagENT3 (Trichomonas vaginalis, UniProt A2E5Q3); conditions: TvagENT3 expressed in T. brucei; cited from earlier work
L. mexicana NT1-KO cells = assay: Radiolabel transport assay in NT1-KO cells; format: cell-based, Leishmania mexicana
Method: as §1

LmexNT1.1 = assay: Transport assay, LmexNT1.1 expressed in SUPKO; format: cell-based, Leishmania mexicana; conditions: SUPKO expressing LmexNT1.1, 50 nM radiolabel
Method: as §1

TcrNB2 [5] = target: T2, TcrNB2 (Trypanosoma cruzi, UniProt Q4DHG0); assay: Transport assay, TcrNB2 expressed in NT1-KO; format: cell-based; conditions: 50 nM [^3H]-adenosine, 100 nM [^3H]-hypoxanthine, 100 nM [^3H]-uracil; data not shown
T2 sequence (Q4DHG0 1-440): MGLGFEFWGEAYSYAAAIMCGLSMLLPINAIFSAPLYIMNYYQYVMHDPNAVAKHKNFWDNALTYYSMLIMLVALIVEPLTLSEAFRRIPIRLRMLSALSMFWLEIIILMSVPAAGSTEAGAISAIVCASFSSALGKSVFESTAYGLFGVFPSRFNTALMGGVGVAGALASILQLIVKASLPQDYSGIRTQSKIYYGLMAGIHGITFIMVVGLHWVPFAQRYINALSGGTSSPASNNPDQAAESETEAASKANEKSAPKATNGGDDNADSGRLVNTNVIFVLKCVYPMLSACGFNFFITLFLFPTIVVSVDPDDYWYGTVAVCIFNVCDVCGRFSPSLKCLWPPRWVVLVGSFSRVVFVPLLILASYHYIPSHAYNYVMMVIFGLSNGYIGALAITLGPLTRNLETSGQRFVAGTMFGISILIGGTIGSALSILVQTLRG
Method: as §1

TcrNB2 [6] = target: T2, TcrNB2; assay: Transport assay, TcrNB2 expressed in LmexNT3-KO; format: cell-based; conditions: 1 mM inhibitor, TcrNB2 in NT3-KO; read-out: inhibition of adenine uptake
Method: as §1

TvagENT3 [7] = target: T1, TvagENT3; assay: cell-based
Method: as §1

L. mexicana cas9 cells [8] = assay: Radiolabel transport assay in cas9 cells; format: cell-based, Leishmania mexicana; conditions: for rate of uptake: cas9 cells
Method: as §1

[9] = test system: L. mexicana cas9 promastigotes; assay: Resazurin (Alamar blue) drug sensitivity assay, cas9 control line; format: cell-based; conditions: Leishmania mexicana, n = 3
Method: (§2) The assay is based on the reduction of the dye resazurin (Alamar blue) by live but not dead cells and was performed with various strains of Leishmania mexicana promastigotes, exactly as described. Briefly, doubling dilutions starting at 100 µM were set up over 2 rows of a 96-well plate and 2 × 10^5 cells were added to each well, followed by incubation at 25 °C. After 72 h, 20 µL of 125 µg/mL resazurin solution was added and the plates incubated for a further 24 h. Fluorescence was determined in a FLUOstar OPTIMA plate reader (BMG Labtech, Ortenberg, Germany), reading the fluorescence intensity in arbitrary units (A.U.) at 544 nm wavelength for excitation and 620 nm wavelength for emission. The EC50 values and fluorescence data were determined and plotted to a sigmoid curve with variable slope, using the GraphPad Prism 8 software package. All EC50 values were determined on at least three independent occasions and are presented as average ± SEM.

L. mexicana cas9 cells [10] = assay: Growth curve of cas9 cells with selection agents; format: cell-based, Leishmania mexicana; conditions: 5 μM tubercidin, 5 μg/mL blasticidin, 20 µg/mL puromycin, 1 µM formycin B
Method: The growth rates of the L. mexicana promastigotes were determined in the standard HOMEM medium supplemented with 10% FBS, in 12-well plates, in triplicate. After every 24 h, cells were counted in a sample of the culture, using either a Neubauer hemocytometer chamber (Hawksley, Birmingham, UK) or by a coulter particle counter and size analyzer (Beckman, Brea, CA, USA) to count the cells in triplicate. An average of the triplicate readings was taken and plotted using GraphPad Prism 8 software to obtain the growth curves.

[11] = test system: L. mexicana NT2-KO promastigotes; assay: Resazurin (Alamar blue) drug sensitivity assay, NT2-KO line; format: cell-based; conditions: Leishmania mexicana, NT2-KO strain, n = 3
Method: as §2

L. major U1 transporter = target: L. major U1 transporter; parameters: method as in PMID 15796010; conditions: unit printed only with the uridine value; cited from earlier work
[12] = substrate: O=c1cc[nH]c(=O)[nH]1; assay: Transport assay, FurD expressed in Lmex5FURes; format: cell-based, Aspergillus nidulans; conditions: other: FurD in Lmex5FURes, 100 nM [^3H]-uracil over 10 s
Method: as §1

[13] = 50 nM radiolabel, listed as [^3H]-adenosine

T1 sequence (A2E5Q3 entry or part of it): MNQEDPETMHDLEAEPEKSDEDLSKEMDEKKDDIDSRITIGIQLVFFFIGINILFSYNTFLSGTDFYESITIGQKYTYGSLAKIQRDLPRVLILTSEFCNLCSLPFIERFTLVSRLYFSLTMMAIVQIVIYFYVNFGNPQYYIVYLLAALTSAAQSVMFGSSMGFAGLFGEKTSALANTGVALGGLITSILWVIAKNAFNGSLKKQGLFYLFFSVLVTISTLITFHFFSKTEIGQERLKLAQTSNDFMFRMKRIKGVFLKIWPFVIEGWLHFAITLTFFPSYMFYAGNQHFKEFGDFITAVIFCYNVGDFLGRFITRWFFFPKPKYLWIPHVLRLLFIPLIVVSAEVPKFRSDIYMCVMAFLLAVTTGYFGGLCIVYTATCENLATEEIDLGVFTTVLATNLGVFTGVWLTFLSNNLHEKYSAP

O=c1[nH]cc(F)c(=O)[nH]1 [5FU, 5-fluorouracil]
Ki (FurD; unit printed only with the uracil Km): 460 nM | Ki ([1]; FurD in Lmex5FURes, inhibition of [^3H]-uracil uptake): 700 ± 250 nM | uptake in Lmex5FURes control (Lmex5FURes cells; 100 nM [^3H]-5FU, p = 0.27): not significantly different from zero

Nc1ncnc2c1ncn2[C@@H]1O[C@H](CO)[C@@H](O)[C@H]1O [adenosine]
uptake reduced in SUPKO compared to cas9 ([2]; 50 nM radiolabel): 99% | rate of uptake ([2]; 50 nM radiolabel): 0.00063 pmol(10^7 cells)^−1s^−1 | rate of uptake [2, 13]: 0.0006 ± 0.00007 pmol(10^7 cells)^−1s^−1 | rate of uptake ([2]; 100 nM radiolabel): 0.00046 ± 0.00002 pmol(10^7 cells)^−1s^−1 | rate of uptake [3]: 0.55 ± 0.05 pmol(10^7 cells)^−1s^−1 | upregulation of uptake rate in NT3-KO relative to cas9 ([3]; listed as [^3H]-adenosine): 4.0 fold and 6.4 fold | rate of uptake (LmexNT1.2): 0.36 ± 0.03 pmol(10^7 cells)^−1s^−1 | Ki (TvagENT3 [4]): 870 ± 150 nM | rate of uptake lower in NT1-KO than in cas9 (L. mexicana NT1-KO cells; 50 nM radiolabel): 99.4% | rate of uptake (L. mexicana NT1-KO cells; NT1-KO cells, 50 nM radiolabel): 0.00048 ± 0.00007 pmol(10^7 cells)^−1s^−1 | rate of uptake (LmexNT1.1): 0.27 ± 0.006 pmol(10^7 cells)^−1s^−1 | effect of TcrNB2 expression on uptake in NT1-KO cells (TcrNB2 [5]): did not increase | inhibition at 1000 µM (TcrNB2 [6]): 15.5 ± 11.7% | uptake lower in SUPKO than in SUPKO expressing TvagENT3 (TvagENT3 [7]; 50 nM radiolabel): 94.6% | rate of uptake (TvagENT3 [7]; SUPKO expressing TvagENT3, 50 nM radiolabel): 0.0080 ± 0.0004 pmol(10^7 cells)^−1s^−1 | inhibition of [^3H]-thymidine uptake (L. mexicana cas9 cells [8]; 0.1 µM [^3H]-thymidine, adenosine concentration and cell line not explicitly printed): fully inhibited | rate of uptake (L. mexicana cas9 cells [8]; [13]): 0.082 ± 0.004 pmol(10^7 cells)^−1s^−1 and 0.081 ± 0.006 pmol(10^7 cells)^−1s^−1 | rate of uptake (L. mexicana cas9 cells [8]; 100 nM radiolabel, listed as [^3H]-adenosine): 0.082 ± 0.004 pmol(10^7 cells)^−1s^−1 and 0.086 ± 0.009 pmol(10^7 cells)^−1s^−1

O=c1[nH]cnc2c([C@@H]3O[C@H](CO)[C@@H](O)[C@H]3O)n[nH]c12 [formycin B]
EC50 [9]: 18 ± 2 nM | sensitivity of cas9 cells in growth curve (L. mexicana cas9 cells [10]): confirmed | EC50 [11]: 63500 ± 1900 nM

O=c1[nH]cnc2c1ncn2[C@@H]1O[C@H](CO)[C@@H](O)[C@H]1O [inosine]
rate of uptake [3]: 0.061 ± 0.002 pmol(10^7 cells)^−1s^−1 | upregulation of uptake rate in NT3-KO relative to cas9 [3]: 4 fold | Ki (TvagENT3 [4]): 3300 ± 70 nM | Ki (TvagENT3 [7]; TvagENT3 in SUPKO, inhibition of 50 nM [^3H]-adenosine uptake): 2700 ± 500 nM | rate of uptake (L. mexicana cas9 cells [8]; 100 nM radiolabel): 0.016 ± 0.002 pmol(10^7 cells)^−1s^−1

O=c1cc[nH]c(=O)[nH]1 [uracil]
Km (FurD): 0.45 µM | uptake in SUPKO compared with cas9 ([2]; 100 nM [^3H]-uracil, n = 3, p = 0.81): identical | rate of uptake ([2]; 100 nM radiolabel): 0.00032 ± 0.00003 pmol(10^7 cells)^−1s^−1 | Ki (L. major U1 transporter): 320 ± 70 nM | rate of uptake ([1]; Lmex5FURes expressing FurD clone 2, 100 nM radiolabel): 0.29 ± 0.02 pmol(10^7 cells)^−1s^−1 | rate of uptake (Lmex5FURes cells; Lmex5FURes cells, 100 nM radiolabel): 0.00057 ± 0.0001 pmol(10^7 cells)^−1s^−1 | uptake in NT1-KO compared with cas9 (L. mexicana NT1-KO cells; 100 nM [^3H]-uracil): identical | effect of TcrNB2 expression on uptake in NT1-KO cells (TcrNB2 [5]): did not increase | rate of uptake (L. mexicana cas9 cells [8]; 100 nM radiolabel): 0.00031 ± 0.00002 pmol(10^7 cells)^−1s^−1

O=c1ccn([C@@H]2O[C@H](CO)[C@@H](O)[C@H]2O)c(=O)[nH]1 [uridine]
uptake reduced in SUPKO compared to cas9 ([2]; 100 nM (0.1 µM) radiolabel, listed as [^3H]-uridine): 88.3% and 98.6% and 97.5% | rate of uptake ([2]; 50 nM radiolabel): not significantly different from zero | rate of uptake ([2]; 100 nM radiolabel): 0.0014 ± 0.00009 pmol(10^7 cells)^−1s^−1 | Ki (L. major U1 transporter): 10900 ± 3200 nM | rate of uptake (LmexNT1.2): 0.0076 ± 0.0009 pmol(10^7 cells)^−1s^−1 | uptake faster by cells expressing NT1.2 than NT1.1 (LmexNT1.2; SUPKO transfectants, p = 0.0004): 6.3 fold | rate of uptake (LmexNT1.1): 0.0012 ± 0.0001 pmol(10^7 cells)^−1s^−1 | rate of uptake (L. mexicana cas9 cells [8]; 100 nM radiolabel): 0.10 ± 0.003 pmol(10^7 cells)^−1s^−1

B1: Aspergillus nidulans uracil transporter FurD (Aspergillus nidulans) (protein)
chain: MRFGRFHLRVEQSRSAFASGNARWTNLDLDPVPRAGRVWGPLSFISYWISDAFNAATWQFASSIIAVGLSWRESLGIVALSFFIISFVIAANGAVGSIYHIPFPVIARASWGFWGSYIAIISRVILAIFWFAIQNVNGANAVKAMISAIWPSFLSMKNTIPQDQGIETNTMIAYMIFWIVQMPFLCIHPNKVRWLFATKSVLVPAAWIAILIWAFVAEGKGALFEQRATVSGSQYSWVWLASMTSVLGNYATLSVNQSDFSRYSRVSAKWQLLYIPLLPVIFTFISFIGIAASSAGWTRYNTPSIPWDPIELISHWDSRAARFFGAFSFALASLGVNISANSISAANDLMALFPTYVDLRRGQIICGVISWALVPWKILESASNFLNFMSAYAIFLGPIAAIMLWDFWLIKNRKYDTVALYQPDTPIYRFNAWLVNWRAVVAFLVGVIPSLPGLSNSVNSRIQVGVGIHPYQFGWLLGFVGTSLVYIALSYGFPVREALIERAVLSDEVYEGREVEGEGVEEGREELGESKREGVGKEKGFAVY
Km [12]: 0.89 ± 0.20 µM
